From paper PMC4869175, “Evidence that phytochrome functions as a protein kinase in plant light signalling” (Nature Communications, 2016)

Columns and labels:
Assay in all cases: Photoaffinity labelling with 8-azido-ATP (ATP-binding affinity assay)
Settings in all cases: 5 μM 8-azido-ATP; labelling of WT AsphyA with 5 μM assumed as 100%
[1] = molecular target: T1, D422R AsphyA mutant (full-length) (Avena sativa, UniProt P06593, D422R)
T1 construct: After preparing purified full-length AsphyA mutants; made in house; host or cells: Pichia pastoris GS115
T1 sequence (P06593 whole entry D422R): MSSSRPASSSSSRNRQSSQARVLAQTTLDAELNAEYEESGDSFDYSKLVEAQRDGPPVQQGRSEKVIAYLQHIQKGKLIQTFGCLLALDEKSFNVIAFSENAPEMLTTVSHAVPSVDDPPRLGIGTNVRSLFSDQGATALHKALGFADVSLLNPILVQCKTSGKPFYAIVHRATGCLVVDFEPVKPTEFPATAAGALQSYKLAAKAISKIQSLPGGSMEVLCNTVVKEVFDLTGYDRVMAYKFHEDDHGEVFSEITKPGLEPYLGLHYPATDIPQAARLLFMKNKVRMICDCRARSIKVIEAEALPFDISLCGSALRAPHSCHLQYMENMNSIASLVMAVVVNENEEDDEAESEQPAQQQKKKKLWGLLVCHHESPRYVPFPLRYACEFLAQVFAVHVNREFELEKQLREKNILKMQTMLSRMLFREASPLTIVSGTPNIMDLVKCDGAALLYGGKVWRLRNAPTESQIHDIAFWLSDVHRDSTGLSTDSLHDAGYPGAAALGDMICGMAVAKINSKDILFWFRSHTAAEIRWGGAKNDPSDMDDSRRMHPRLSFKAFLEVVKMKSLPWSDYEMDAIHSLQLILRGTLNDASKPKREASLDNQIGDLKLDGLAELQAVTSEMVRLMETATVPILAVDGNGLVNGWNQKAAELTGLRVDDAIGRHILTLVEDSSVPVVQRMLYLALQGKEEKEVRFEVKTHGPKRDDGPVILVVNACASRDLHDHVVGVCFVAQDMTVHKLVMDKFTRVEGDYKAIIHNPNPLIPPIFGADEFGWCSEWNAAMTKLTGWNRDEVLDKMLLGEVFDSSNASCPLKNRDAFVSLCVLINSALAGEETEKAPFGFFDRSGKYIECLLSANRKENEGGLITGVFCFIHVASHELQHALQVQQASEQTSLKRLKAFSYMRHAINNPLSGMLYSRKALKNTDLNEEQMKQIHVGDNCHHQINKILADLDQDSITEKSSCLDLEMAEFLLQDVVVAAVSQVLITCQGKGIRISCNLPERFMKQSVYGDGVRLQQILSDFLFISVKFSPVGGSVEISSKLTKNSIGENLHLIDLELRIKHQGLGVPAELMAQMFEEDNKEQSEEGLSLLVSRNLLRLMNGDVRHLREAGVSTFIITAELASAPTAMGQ
Procedure: (§1) Figure 4 Phosphorylation analyses of AsphyA mutants with reduced kinase activity. (a) Kinase activity assays of the AsphyA mutants. In all, 1.0 μg of GST/strep-fused PIF3 (∼0.3 μM) was added as a substrate in reaction mixtures with 1.0 μg of either full-length WT or a mutant (K411L, T418D or D422R) AsphyA protein (∼0.2 μM). (b) Protein–protein interaction analysis between PIF3 and the AsphyA kinase mutants. GST was included as a negative control. (c) ATP-binding affinity assays of AsphyA kinase mutants using photoaffinity labelling with 8-azido-ATP. 1.0 μg of full-length AsphyA protein (∼80 nM) was labelled with the indicated concentrations of 8-azido-ATP. The percentages of 8-azido-ATP labeling were obtained where the labelling of WT AsphyA with 5 μM azido-ATP was assumed as 100%. Error bars represent s.d. from three independent measurements.
(§2) To investigate ATP-binding to AsphyA proteins, photoaffinity labelling experiments were carried out using 8-N3-ATP-biotin-long chain-hydrazone (8-azido-ATP), which were purchased from Affinity Labeling Technologies, Inc. Purified phytochrome proteins (1.0 μg) were pre-incubated for 30 min on ice in 50 μl of photoaffinity labelling buffer (20 mM Tris-HCl, pH 7.0, 2 mM EDTA, 2 mM MgCl2 and 150 μM ATP), and then 8-azido-ATP was applied with indicated concentrations. […]
(§3) Supplementary Figure 15. […] Full-length wild-type and mutant AsphyA proteins were labeled with the indicated concentrations of 8-azido-ATP, and the azido-ATP-labeled proteins were detected with avidin-HRP (upper panels).
(§4) Amounts of AsphyA proteins (ca. 1.0 µg) used in these reactions are shown as loading controls in lower panels, which were analyzed using western blots with oat22 antibody.
(§5) Phosphorylation analysis of the D422R mutant of A610 (DR/A610). […] Wild-type (A610) and DR/A610 mutant proteins were labeled with the indicated concentrations of 8-azido-ATP, and the 8-azido-ATP labeled proteins were detected with avidin-HRP (upper panel).

[2] = molecular target: T2, K411L AsphyA mutant (full-length) (Avena sativa, UniProt P06593, K411L)
T2 construct: After preparing purified full-length AsphyA mutants; made in house; host or cells: Pichia pastoris GS115
T2 sequence (P06593 whole entry K411L): as the sequence (P06593 whole entry D422R) above, with K411L, R422D counted along it
Procedure: as §1, §2, §3, §4, §5

[3] = molecular target: T3, T418D AsphyA mutant (full-length) (Avena sativa, UniProt P06593, T418D)
T3 construct: After preparing purified full-length AsphyA mutants; made in house; host or cells: Pichia pastoris GS115
T3 sequence (P06593 whole entry T418D): as the sequence (P06593 whole entry D422R) above, with T418D, R422D counted along it
Procedure: as §1, §2, §3, §4, §5

8-N3-ATP-biotin-long chain-hydrazone [8-azido-ATP]
8-azido-ATP labelling, % of the WT AsphyA [1]: ~5% | 8-azido-ATP labelling, % of the WT AsphyA [2]: ~30% | 8-azido-ATP labelling, % of the WT AsphyA [3]: ~17%
